The record followed here is US20100113517A1, “METHOD FOR THE TREATMENT OF FABRY DISEASE USING PHARMACOLOGICAL CHAPERONES” (AMICUS THERAPEUTICS, INC., priority 2007, published 2010).

The test deals with α-Gal A. Briefly: Phase II study in Fabry patients, α-Gal A activity in white blood cells. The class given is in vivo, Fabry patients (human). The method, then:
Study Design. A two-arm design was planned. […] In the second arm, escalating doses of 25, 100, and then 250 mg b.i.d. over 6 weeks, followed by 50 mg/day for the remainder of the study.
α-Gal A activity. In addition, α-Gal A activity will be assessed in fractionated tissue obtained from biopsies and in blood leukocytes and plasma (from blood collected at baseline and every month).
α-Gal A Activity. […] Eight patients in the study received an acending dose of 25, 100, and then 250 mg b.i.d. over 6 weeks, followed by 50 mg/day for the remainder of the study (represented on FIG. 2 by closed circles). For purposes of calculating the percentage of normal in the table, the level of α-GAL that is normal was derived by using the average of the levels of α-GAL in white blood cells of 15 healthy volunteers from the multiple-dose Phase I study.

With `OCC1NCC(O)C(O)C1O` (stereo not shown) [DGJ, 1-deoxygalactonojirimycin], the “enzyme activity at the lowest dose evaluated” value (25 mg b.i.d., Fabry patients) is “increased enzyme activity”. Also, the “restoration of α-Gal A activity levels by titration” value (as measured in white blood cells) is reported as “to the normal range”. The “enzyme activity after dose reduction” value (dose reduced after 6 weeks to 50 mg/day) is “remains elevated”. The “patients with an increase in the activity of the enzyme deficient in Fabry disease” value (first eleven patients treated for at least 12 weeks, white blood cells) is given as 10 of the 11.
